Test results taken from patent US20260167935A1, “METHOD FOR CULTURING TONSIL-DERIVED MESENCHYMAL STEM CELLS USING N-ACETYLCYSTEINE (NAC)” (priority 2023, published 2026).

Key:
[1] = tested on: tonsil-derived human MSCs; assay: Cell viability after NAC pretreatment for 24 hours (determination of NAC pretreatment concentration); conditions: NAC 10 mM, FIG. 1
Method: In order to determine the concentration of NAC for pretreatment of tonsil-derived human MSCs, the tonsil-derived human MSCs were pretreated with NAC prepared in Example 1 at concentrations of 2, 4, 6, 8, 10, 15, and 100 mM for 24 hours, and then cell viability was evaluated.

[2] = tested on: tonsil-derived human MSCs (hMSC-T, passage 6); assay: Cell viability (WST, absorbance at 450 nm) upon NAC pretreatment followed by PYBR treatment; assay type: cell-based; conditions: NAC pretreatment 10 mM and 20 mM for 24 hours, then PYBR 5, 10, 20 μg/mL for 24 hours; FIG. 3
Method: In order to evaluate cell viability upon NAC treatment, tonsil-derived human MSCs (hMSC-T, passage 6) were seeded in a culture medium at a density of 1×10^3 cells/well. On the following day, NAC was treated at concentrations of 10 mM and 20 mM for 24 hours. Thereafter, the cells were washed with PBS and the medium was replaced, followed by treatment with PYBR at concentrations of 5, 10, and 20 μg/mL. After 24 hours, the cells were washed three times with PBS and transferred to fresh medium (100 μL) containing 10 μL of WST solution, and incubated at 37° C. for 2 hours in the dark. Absorbance at 450 nm was then measured to evaluate cell viability (FIG. 2). A group not treated with NAC was used as a positive control.

[3] = tested on: tonsil-derived human MSCs (hMSC-T, passage 6); assay: Antioxidant activity (ROS assay) upon NAC pretreatment followed by PYBR treatment; assay type: cell-based; conditions: NAC pretreatment 10 mM and 20 mM for 24 hours, then PYBR 5, 10, 20 μg/mL for 24 hours; FIG. 5
Method: In order to evaluate antioxidant activity upon NAC treatment, tonsil-derived human MSCs (hMSC-T, passage 6) were seeded in a culture medium at a density of 1×10^4 cells/well. On the following day, NAC was treated at concentrations of 10 mM and 20 mM for 24 hours. Thereafter, the cells were washed with PBS and the medium was replaced, followed by treatment with PYBR at concentrations of 5, 10, and 20 μg/mL. After 24 hours, the cells were washed three times with PBS and incubated in 100 μL of ROS working solution at 37° C. for 30 minutes in the dark. Absorbance was then measured at 488/525 nm (FIG. 4). A group not treated with NAC was used as a positive control.

In the case of `CC(=O)NC(CS)C(=O)O` (stereo not drawn) [NAC, 2-acetamido-3-sulfanylpropanoic acid], the “cytotoxicity (cell viability)” value [1] is reported as “no cytotoxicity was observed”, the “cell viability after PYBR treatment” value [2] is reported as “significantly restored cell viability” and the “ROS levels after PYBR treatment” value [3] is reported as “significantly reduced ROS levels”.
